Laboratory results: patent US9340788B2 (priority 2007, dated 2016)

How the values were obtained:
HCMV = HCMV IE1 / viral gene expression, western blot of infected cells; type: cell-based, Human cytomegalovirus; settings: for HCMV IE1 gene expression: IMC-3G3 10 μg/ml 12 h or Gleevec 100 nM 1 h pre-treatment, western blot
Procedure: (A) pp65 immunofluorescence after HCMV treatment (1 h, 4° C.) followed by shifting to 37° C. for indicated times. Rows represent (top to bottom): HEL, PDGFRα null fibroblasts, parental fibroblasts, null fibroblasts overexpressing hPDGFRα, HEL transfected with control, or PDGFRα siRNA. Nuclei were stained with DAPI. (B) Average±S.D. pp65 positive/100 cells counted in triplicate from (A). (C) Mock or HCMV infected cells were analyzed by western blotting with the indicated antibodies. Lanes 1-4 indicate HEL, 325S, PDGFRα null and PDGFRα null over-expressing hPDGFRα, respectively. (D) HEL transfected with control or PDGFRα siRNA were mock (lanes 1) or HCMV-treated (lanes 2) and subjected to western blots with indicated antibodies. (E) Western blot of HEL and U87 lysates after infection with mock (lanes 1), HCMV (lanes 2), or HCMV pretreated with IMC-3G3 (10 μg/ml, 12 h, lanes 3) or Gleevec (100 nM, 1 h, lanes 4). (F) PDGFRα siRNA treated cells infected with indicated HCMV strains and immunostained for IE1 12 hpi (primary infection). 6 dpi, supernatants were used to infect naïve HEL cells, followed by IE1 immunostaining and quantification (secondary infection). Average (n=6) values±S.D. are shown.
HUVEC cells were pre-treated with IMC-3G3 (10 μg/ml, Imclone, 12 h), or Gleevec (100 nM, 1 h) prior to HCMV or mock infection. 12 hours post-infection, cell lysates were analyzed by western blot for the presence of IE1 gene product. […] The same blot was stripped and re-probed for actin (lower panel). Lane designation is 1—Mock, 2—HCMV, 3—IMC-3G3+HCMV, 4—Gleevec+HCMV.
Upper panel: HEL cells pretreated with anti-human PDGFRα antibody (10 ng/ml, for 30 min, clone AF-307-NA from R&D; lanes 1 and 3) or with AG 1295 (lane 4, […], from Calbiochem) were stimulated with Towne HCMV (lanes 2 through 4) or Mock infected (lane 1) for 10 min at 37 C. Cells were washed and further incubated for 2 h at 37 C (to allow expression of IE1 gene product). Afterwards, cells were harvested in RIPA buffer and processed for western blotting as described.
Western Blot, Immunoprecipitation, and Immunofluorescence analyses. For stimulation experiments, cells were serum-starved for 24 h, followed by stimulation with HCMV (MOI of 0.5), PDGF-AA (5-10 ng/ml, from R&D Systems), or mock, for 10 minutes. In some cases, cells were pre-treated with IMC-3G3 (ImClone Inc.) at 10 µg/ml (2 or 12 h) or Gleevec® (100 nM, 1 h) prior to HCMV exposure. Cell lysates were analyzed by SDS-PAGE. Antibodies used were as follows: polyclonal anti-PDGFRα ( 1/500), phosphor-Tyrosine clone 4G10 ( 1/1000), and monoclonal anti-p85 PI3-K ( 1/1000), (Upstate Biotechnology), anti HCMV IE1 MAB810 (Chemicon; 1/1000), anti HCMV pp65 (Novocastra, 1/1000), anti-phosphor-PDGFRα ( 1/500, pTyr 754), anti-phosphor-Akt (Ser 473, 1/1000) and total Akt ( 1/1000; all from Cell Signaling). Anti-actin polyclonal control antibody was used ( 1/500, Sigma). Immunoprecipitations were performed using protein G (Pierce) according to manufacturer's instructions. For immunofluorescence, monoclonal HCMV pp65 and phosphor-PDGFRα (p-Tyr 754, Santa Cruz Biotechnology) were used, overnight at 4° C., followed by 1 hour incubation with secondary antibodies conjugated to Alexa-488, or Alexa 568 ( 1/5,000, Molecular Probes). Nuclei were counterstained with DAPI. Co-immunoprecipitation experiments were performed using full length soluble purified recombinant gB (gB 680, from Don Diamond, City of Hope, Calif.) and detergent soluble extract of HEL cells generated in lysis buffer (1% NP-40, 75 mM NaCl and 50 mM Tris-HCl). 500 μg of protein from total cell extract was incubated with 25 μg of gB 680 in lysis buffer in the presence of an anti-gB (Virusys, Inc) or anti-PDGFRα (R&D) antibody overnight at 4° C. Immune complexes were recovered with protein A-Sepharose beads (2 hr incubation), denatured and separated on SDS-PAGE for western blot with anti-gB (Virusys, Inc) or anti-PDGFRα (Cell Signaling Technology) antibodies.

PI3-K/Akt signaling = type: cell-based, human; settings: HEL; 10 min stimulation; IMC-3G3 2 μg/ml or Gleevec 100 nM; p-Akt Ser 473
Procedure: (A) HEL cells stimulated with HCMV or PDGF-AA were subjected to immunoprecipitation and western blot analyses with indicated antibodies. (B) Phospho-PDGFRα ELISA of cells+/−pretreatment with IMC-3G3 (10 μg/ml, 2 h) followed by HCMV (MOI=1) or PDGF (10 ng/ml) for 10 min. Mean values (n=6)±S.D are shown. (C) Western blot of HEL mock, HCMV, or PDGF-AA stimulated (10 min), +/−IMC-3G3 (2 μg/ml) or Gleevec® (Imatinib) (100 nM). The same membrane was used for p-Akt^Ser 473 and Akt.
HEL cells pretreated with blocking reagents (as indicated; 30 min, 37 C) were stimulated for 10 min with HCMV, PDGF-AA (5 ng/ml), or mock-treated. Cell lysates were collected in RIPA buffer (supplemented with protease and phosphatase inhibitors) and subjected to Western blot analysis.
For stimulation experiments, cells were serum-starved for 24 h, followed by stimulation with HCMV (MOI of 0.5), PDGF-AA (5-10 ng/ml, from R&D Systems), or mock, for 10 minutes. In some cases, cells were pre-treated with IMC-3G3 (ImClone Inc.) at 10 g/ml (2 or 12 h) or Gleevec® (100 nM, 1 h) prior to HCMV exposure. Cell lysates were analyzed by SDS-PAGE. Antibodies used were as follows: polyclonal anti-PDGFRα ( 1/500), phosphor-Tyrosine clone 4G10 ( 1/1000), and monoclonal anti-p85 PI3-K ( 1/1000), (Upstate Biotechnology), anti HCMV IE1 MAB810 (Chemicon; 1/1000), anti HCMV pp65 (Novocastra, 1/1000), anti-phosphor-PDGFRα ( 1/500, pTyr 754), anti-phosphor-Akt (Ser 473, 1/1000) and total Akt ( 1/1000; all from Cell Signaling). Anti-actin polyclonal control antibody was used ( 1/500, Sigma). Immunoprecipitations were performed using protein G (Pierce) according to manufacturer's instructions.

IMC-3G3: humanized PDGFRα blocking antibody (ImClone Inc.)
HCMV IE1 gene expression (HCMV; HEL cells): completely inhibited
HCMV IE1 expression (HCMV; HUVEC, pre-treated with IMC-3G3 10 μg/ml 12 h or Gleevec 100 nM 1 h, western blot 12 hours post-infection): completely inhibited
HCMV IE1 gene expression (HCMV; U87 glioma cells): completely inhibited
HCMV gene expression (HCMV; human epithelial, endothelial, and fibroblast cells): completely inhibited
Akt phosphorylation induced by either HCMV or PDGF-AA (PI3-K/Akt signaling): abolished
